Measurements reported in patent publication US20060194315A1, “Compositions and methods for the control, differentiaton and/or manipulation of pluripotent cells through a gamma-secretase signaling pathway” (priority 2003, published 2006).

Columns and labels:
gamma-secretase complex = target: T1, gamma-secretase complex (Homo sapiens, UniProt P49768); test: Western blot for gamma-secretase cleaved Notch1 (NICD) in hES cells harvested with Trypsin/EDTA; format: cell-based; conditions: BGN1 hES cells grown in 50 μM DAPT for 3 days, vs 0.5% DMSO
T1 construct: endogenous in cells; host or cells: BGN1 human embryonic stem cells, grown on mouse embryonic fibroblast feeders
Description: Western blots were done using standard procedures. In brief, protein content of samples was determined with a BCA micro protein assay (Pierce, Rockford, Ill.) and equal amounts of protein were loaded onto precast polyacrylamide mini-gels (Gradipore, Australia). Proteins were transferred to nylon membranes which were then incubated for 30 minutes in blocking buffer (tris buffered saline/0.1% tween 20/5% powdered milk). Primary antibodies were diluted in blocking buffer at the following ratios: bTAN20 and C651.6bHN were diluted 1:10; anti-Oct4 was diluted 1:100; anti-presenilin, nicastrin, cleaved NOTCH1 were diluted 1:1000 and anti-HDAC was used at a concentration of 0.5 μg/ml. Primary antibodies were incubated overnight at 4° C., followed by two five-minute washes and one 15-minute wash in tris-buffered saline/0.1% tween 20. Secondary antibodies were diluted in blocking buffer and incubated with the membranes for 45 minutes at room temperature. Washes were repeated as above and a final 15-minute wash was done with tris-buffered saline. ECL (Amersham, Buckinghamshire, England) was performed according to the manufacturer's instructions and autoradiographs were made.
To address the possibility that trypsin non-specifically generated the 110 kD Notch1 band, DAPT, a potent and specific gamma-secretase inhibitor, was used to treat the hES cells before harvesting. […]

Hes1 = test: Real-time RT-PCR of Hes1 induction by EDTA in hES cells; format: cell-based, human
Description: Hes1 induction by EDTA treatment was monitored by real-time RT-PCR. Cultures of […] on Matrigel-coated 24-well plates were treated with either 0.5% DMSO or 50 μM DAPT in CM for 4 hours to overnight before induction by EDTA exposure. The wells were exposed to 2 mM EDTA in CM (with DMSO or DAPT) for 15 minutes at 37° C. EDTA was neutralized by addition of 4.9 mM CaCl2 and incubated for a further 1.5 hours. The cells were harvested with Trizol and RNA was extracted as described above. Real-time PCR was performed using TaqMan primers and probes (Applied Biosystems, Inc.) for Hes1 (primer sequences: […] ID NO: 17); […] ID NO:18); probe […] NO:19)) and normalized to GAPDH (kit from Applied Biosystems, Inc; cat. no. 402869). Reactions were run and monitored on an ABI7700 Sequence Detection System (Applied Bioysytems, Inc). Data was analyzed as described in Pfaffl et al., 2002 Nucleic Acids Research 30(9): […]. REST-XL (version 2) software was used to determine relative quantification of Hes1 gene expression. The data were expressed as the ratio of GAPDH normalized Hes1 expression of EDTA-treated to EDTA-untreated samples. DAPT treated cultures were compared to DMSO treated cultures. These values were log transformed for statistical analysis by t-test and graphed in Excel.

[1] = system: hES cells (BGN1 and BGN2); test: Flow cytometry of SSEA4 and Notch1 expression in treated hES cell cultures; format: cell-based, human; conditions: for proportion of cells in Fr. A (SSEA4high/Notch1high, undifferentiated cells): 50 μM DAPT vs DMSO, four experiments
Description: Cultures were harvested by Collagenase/trypsin passaging methods described above as an essentially single cell suspension, washed in 1×PBS, and fixed in 1% paraformaldehyde for 25 minutes on ice. The cells were washed in 1×PBS, blocked in 3% goat serum, and stained with primary antibodies for 30 minutes. to overnight at 4° C. The cells were washed in 1×PBS three times and stained with Secondary FITC or PE conjugated antibodies (Jackson Immunochemicals, Inc.) for 1 hour to overnight at 4° C. The cells were washed with 1×PBS three times and analyzed on a CyAn flow cytometer (DakoCytomation, Inc.).
Inhibition of gamma-secretase reduces the number of spontaneously differentiated cells in the culture. […] These experiments are diagramed in FIG. 9. hES cell master cultures were maintained with the manual passaging technique. A combination of Collagenase type IV treatment and Trypsin/EDTA exposure was used to passage the hES cells as single cells for no more than 10-12 passages before SSEA4 selection for early trypsin cultures, or were passaged more than 40 passages for late trypsin cultures. The cultures were selected for SSEA4 epitope expression using magnetic selection of SSEA4 antibody-stained cells. The retained fraction from the sort was plated and subjected to the treatment conditions. In some instances, SSEA4 selected cells were expanded for one or two passages. Treatment conditions were 50 μM DAPT, or 0.5% DMSO as carrier control. In some cases, these conditions were compared to untreated cells. The treated cultures were analyzed for SSEA4 expression by flow cytometry, immunohistochemistry, and EB formation.

hES cells [2] = test: SSEA4 immunohistochemistry of treated hES cell cultures; format: cell-based, human; conditions: 50 μM DAPT vs DMSO treated cultures
Description: Cells on chamber slides were rinsed once with 1× PBS and fixed for 30 minutes in 4% PFA/4% sucrose in PBS pH7.4 at room temperature for surface staining, or in ice cold 100% methanol for 5 minutes at −20° C. followed by 4% PFA/4% sucrose in PBS for 10 minutes at room temperature for intracellular staining using the bTAN20 antibody. They were rinsed 3× in 1×PBS and blocked in 3% goat serum/1% PVP with or without 0.3% Triton-X100 in PBS for 30 minutes at 4° C. Primary antibodies were diluted in blocking solution and this solution was applied overnight at 4° C. to the cells. Cells were rinsed in 1×PBS and washed overnight with 3 changes of 1×PBS. Secondary antibodies were applied in blocking solution for 2 hours at 4° C. They were rinsed in 1×PBS then washed overnight with 3 changes of 1×PBS. Cell nuclei were stained with DAPI at 1 μg/ml in the first rinse for 10 minutes. The chambers were removed and slides were mounted in VectaShield mounting medium.
Inhibition of gamma-secretase reduces the number of spontaneously differentiated cells in the culture. […] These experiments are diagramed in FIG. 9. hES cell master cultures were maintained with the manual passaging technique. […] The treated cultures were analyzed for SSEA4 expression by flow cytometry, immunohistochemistry, and EB formation.

hES cells [3] = test: Embryoid body formation from late trypsin passaged hES cultures; format: cell-based, human; conditions: late trypsin passaged cultures maintained in DAPT vs DMSO vs untreated
Description: Embryoid bodies were formed from cultures that had been growing on Matrigel and exposed to the different treatments. These cultures were exposed to Collagenase type IV or Dispase (Gibco) for 10 minutes at 37° C. until a monolayer of cells lifted off of the dish. The monolayer was passed through a pipette tip until it was broken down to small clumps of approximately 500-1000 cells. These clumps were washed in 15% FBS/1% MEM nonessential amino acids/1 mM L-glutamine/penicillin (0.5 U/ml) and streptomycin (0.5 U/ml) twice by allowing them to settle by gravity, removing the supernatant, and resuspending the loose pellet. The cells were plated onto agarose coated Petri dishes in the same medium used for washing and allowed to grow for up to 10 days.
Inhibition of gamma-secretase reduces the number of spontaneously differentiated cells in the culture. […] These experiments are diagramed in FIG. 9. hES cell master cultures were maintained with the manual passaging technique. A combination of Collagenase type IV treatment and Trypsin/EDTA exposure was used to passage the hES cells as single cells for no more than 10-12 passages before SSEA4 selection for early trypsin cultures, or were passaged more than 40 passages for late trypsin cultures. […] The treated cultures were analyzed for SSEA4 expression by flow cytometry, immunohistochemistry, and EB formation.

[4] = inhibitor treatment vs DMSO, 4 experiments, BGN1 and BGN2

T1 sequence (Q92542 34-709, other chains not shown): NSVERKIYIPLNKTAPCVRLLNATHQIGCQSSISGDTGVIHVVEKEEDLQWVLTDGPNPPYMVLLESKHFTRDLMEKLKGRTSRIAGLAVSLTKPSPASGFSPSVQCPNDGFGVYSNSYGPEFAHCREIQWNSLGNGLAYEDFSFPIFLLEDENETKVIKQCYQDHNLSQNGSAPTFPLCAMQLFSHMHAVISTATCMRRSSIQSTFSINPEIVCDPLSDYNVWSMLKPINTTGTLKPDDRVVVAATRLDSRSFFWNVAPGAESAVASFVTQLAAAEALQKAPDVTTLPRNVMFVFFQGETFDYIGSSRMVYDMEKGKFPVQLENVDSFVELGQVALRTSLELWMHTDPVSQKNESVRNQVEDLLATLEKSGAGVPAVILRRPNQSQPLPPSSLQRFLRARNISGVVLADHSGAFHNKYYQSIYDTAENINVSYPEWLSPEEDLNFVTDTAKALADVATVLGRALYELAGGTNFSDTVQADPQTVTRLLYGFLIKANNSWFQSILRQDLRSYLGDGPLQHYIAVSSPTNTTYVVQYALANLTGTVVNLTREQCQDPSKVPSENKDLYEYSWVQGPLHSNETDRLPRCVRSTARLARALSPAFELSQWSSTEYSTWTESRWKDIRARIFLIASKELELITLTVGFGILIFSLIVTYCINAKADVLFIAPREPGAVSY
T1 sequence (Q96BI3 whole entry, other chains not shown, further chain): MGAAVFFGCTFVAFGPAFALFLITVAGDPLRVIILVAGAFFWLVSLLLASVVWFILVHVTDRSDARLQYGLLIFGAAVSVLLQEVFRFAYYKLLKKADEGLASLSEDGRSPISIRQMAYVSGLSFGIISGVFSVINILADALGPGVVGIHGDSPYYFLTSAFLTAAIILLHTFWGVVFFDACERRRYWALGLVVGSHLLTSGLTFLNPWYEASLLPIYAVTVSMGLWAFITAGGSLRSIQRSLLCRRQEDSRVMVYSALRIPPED
T1 sequence (Q9NZ42 whole entry, other chains not shown, further chain): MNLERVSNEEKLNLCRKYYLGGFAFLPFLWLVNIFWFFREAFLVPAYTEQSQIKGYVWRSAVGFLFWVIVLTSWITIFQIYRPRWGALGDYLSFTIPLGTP

Structure (SMILES): C[C@H](NC(=O)Cc1cc(F)cc(F)c1)C(=O)N[C@H](C(=O)OC(C)(C)C)c1ccccc1 [DAPT, N-[N-(3,5-Difluorophenacetyl-L-alanyl)]-S-phenylglycine t-Butyl Ester]
- generation of the NICD fragment (cleaved form of Notch1) upon Trypsin/EDTA exposure (gamma-secretase complex): not generated
- Hes1 induction by EDTA in the presence of the inhibitor (GAPDH normalized expression ratio) (Hes1; 50 μM DAPT 4 hours to overnight, 2 mM EDTA 15 minutes, three independent experiments): less than two-fold
- reduction in Hes1 expression with inhibitor treatment, significance (Hes1; EDTA induction, DAPT vs DMSO, p=0.032, t-test): significant
- proportion of cells in Fr. A (SSEA4high/Notch1high, undifferentiated cells) ([1]; BGN1 and BGN2): small but significant increase
- proportion of cells in Fr. A (SSEA4high/Notch1high, undifferentiated cells) ([1]; BGN1 and BGN2, listed as inhibitor): significantly increased
- cells in Fr. B (SSEA4low-neg/Notch1pos, differentiating cells) ([1]; 50 μM DAPT, average of four experiments, BGN1 and BGN2, DMSO control 30%, p=0.0243): 15%
- proportion of Fr. B (SSEA4low-neg/Notch1pos) cells in culture, in words ([1]; DAPT vs DMSO and untreated, triplicate cultures): reduced
- number of cells in Fr. A [1, 4]: remained unchanged
- number of cells in Fr. B [1, 4]: significantly reduced
- homogeneity of SSEA4 expression (immunohistochemical stain) (hES cells [2]): more homogenous
- morphology of embryoid bodies (hES cells [3]): returned the EBs to a cystic morphology

Structure (SMILES): O=C(O)CN(CCN(CC(=O)O)CC(=O)O)CC(=O)O [EDTA]
- Hes1 induction by EDTA exposure (Hes1; 2 mM EDTA 15 minutes, three independent experiments): up to 10 fold
